Reference: the Kinase Knowledgebase extract (Sharma et al. 2016)
Values joined by “and” are separate entries in the source; they are usually repeats but may differ in a detail not shown here. Equal values may be shown once.

Experiments:
EGFR [1] = biological target: EGFR (UniProt P00533)
MAPK14 [2] = biological target: MAPK14 (UniProt Q16539); assay: In Vitro p38 Inhibition
MAP2K1;MAPK14 (human) [3] = biological target: MAP2K1;MAPK14 (human) (UniProt Q16539); assay: Inhibition of LnCAP Cell Proliferation by MTT Assay
Chain of MAP2K1;MAPK14 (human) (Q16539 whole entry, looked up): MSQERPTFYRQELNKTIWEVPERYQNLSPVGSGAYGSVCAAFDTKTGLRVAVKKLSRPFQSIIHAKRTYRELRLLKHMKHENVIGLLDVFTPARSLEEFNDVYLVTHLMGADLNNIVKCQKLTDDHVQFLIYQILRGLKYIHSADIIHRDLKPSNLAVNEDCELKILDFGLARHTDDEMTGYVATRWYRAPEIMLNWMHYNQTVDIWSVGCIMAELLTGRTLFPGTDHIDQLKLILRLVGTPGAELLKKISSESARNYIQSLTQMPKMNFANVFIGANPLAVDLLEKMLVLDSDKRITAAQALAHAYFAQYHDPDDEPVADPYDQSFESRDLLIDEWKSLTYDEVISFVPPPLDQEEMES

MAP2K1;MAPK14 (mice) = assay: Inhibition of LOVO Cell Proliferation by Xenograft Model; settings: dose or concentration not given here
MAP2K1;MAPK14 (human) [4] = biological target: MAP2K1;MAPK14 (human) (UniProt Q16539); assay: Inhibition of BXPC3 Cell Proliferation by MTT Assay; settings: bxpc-3 pancreatic
EGFR (human) [5] = biological target: EGFR (human) (UniProt P00533); settings: a431
Chain of EGFR (human) (P00533 whole entry, looked up): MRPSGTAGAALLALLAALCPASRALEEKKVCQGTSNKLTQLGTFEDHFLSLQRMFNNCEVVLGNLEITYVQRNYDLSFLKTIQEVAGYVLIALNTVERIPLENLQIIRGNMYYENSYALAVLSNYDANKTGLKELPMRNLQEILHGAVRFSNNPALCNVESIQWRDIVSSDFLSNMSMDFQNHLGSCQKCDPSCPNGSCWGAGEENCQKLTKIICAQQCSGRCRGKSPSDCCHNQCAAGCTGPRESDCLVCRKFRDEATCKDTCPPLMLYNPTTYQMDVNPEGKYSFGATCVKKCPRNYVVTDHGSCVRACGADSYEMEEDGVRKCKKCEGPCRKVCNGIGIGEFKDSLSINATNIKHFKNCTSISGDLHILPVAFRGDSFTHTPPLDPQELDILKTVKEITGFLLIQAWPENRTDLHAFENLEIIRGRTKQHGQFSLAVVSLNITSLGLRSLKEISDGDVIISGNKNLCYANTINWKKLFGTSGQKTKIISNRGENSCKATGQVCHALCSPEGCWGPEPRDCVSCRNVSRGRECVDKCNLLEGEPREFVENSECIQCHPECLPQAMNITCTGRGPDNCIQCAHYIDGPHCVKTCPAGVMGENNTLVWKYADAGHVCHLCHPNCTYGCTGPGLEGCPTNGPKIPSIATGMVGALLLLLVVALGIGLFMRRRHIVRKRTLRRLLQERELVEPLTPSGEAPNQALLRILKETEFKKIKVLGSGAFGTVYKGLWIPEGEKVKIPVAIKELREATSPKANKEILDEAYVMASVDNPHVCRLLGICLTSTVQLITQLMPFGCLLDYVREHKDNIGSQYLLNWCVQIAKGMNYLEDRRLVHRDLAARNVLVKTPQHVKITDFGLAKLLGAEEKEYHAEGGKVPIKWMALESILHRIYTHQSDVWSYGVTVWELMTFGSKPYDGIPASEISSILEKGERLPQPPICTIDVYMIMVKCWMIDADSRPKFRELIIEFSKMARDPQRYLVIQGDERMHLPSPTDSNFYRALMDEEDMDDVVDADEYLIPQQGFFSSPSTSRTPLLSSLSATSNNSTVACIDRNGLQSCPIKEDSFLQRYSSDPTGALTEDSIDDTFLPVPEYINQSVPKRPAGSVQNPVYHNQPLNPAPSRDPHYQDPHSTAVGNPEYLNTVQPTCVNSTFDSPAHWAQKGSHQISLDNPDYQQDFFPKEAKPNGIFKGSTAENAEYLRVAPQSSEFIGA

EGFR [6] = biological target: EGFR (UniProt P00533); remark: listed apart in the source
EGFR [7] = biological target: EGFR (UniProt P00533); remark: listed apart in the source
EGFR (human) [8] = biological target: EGFR (human) (UniProt P00533); settings: a431; remark: listed apart in the source
EGFR [9] = biological target: EGFR (UniProt P00533); remark: listed apart in the source
EGFR (human) [10] = biological target: EGFR (human) (UniProt P00533); settings: a431; remark: listed apart in the source
CDK2;CDK1 = CDK2;CDK1 (UniProt P24941); assay: Cell-Based Assay
MAP2K1;MAPK14 (human) [11] = biological target: MAP2K1;MAPK14 (human) (UniProt Q16539); assay: Inhibition of HT1197 Cell Proliferation by MTT Assay
EGFR (human) [12] = biological target: EGFR (human) (UniProt P00533); settings: f/l herc cells
EGFR (human) [13] = biological target: EGFR (human) (UniProt P00533); settings: a431; remark: listed apart in the source
EGFR (murine) = EGFR (murine) (UniProt P00533); settings: nih3t3
EGFR [14] = biological target: EGFR (UniProt P00533); remark: listed apart in the source
CDK2 (human) = CDK2 (human) (UniProt P24941); assay: Cell-Based Assay; settings: mcf-7
MAPK14 [15] = biological target: MAPK14 (UniProt Q16539); assay: Inhibition of MAPK14 Kinase Activity
EGFR (human) [16] = biological target: EGFR (human) (UniProt P00533); settings: a431, concentration not given here
ROCK2 = ROCK2 (UniProt O75116); assay: Inhibition of COS cell Derived Rho kinase (ROCKII)
Chain of ROCK2 (O75116 whole entry, looked up): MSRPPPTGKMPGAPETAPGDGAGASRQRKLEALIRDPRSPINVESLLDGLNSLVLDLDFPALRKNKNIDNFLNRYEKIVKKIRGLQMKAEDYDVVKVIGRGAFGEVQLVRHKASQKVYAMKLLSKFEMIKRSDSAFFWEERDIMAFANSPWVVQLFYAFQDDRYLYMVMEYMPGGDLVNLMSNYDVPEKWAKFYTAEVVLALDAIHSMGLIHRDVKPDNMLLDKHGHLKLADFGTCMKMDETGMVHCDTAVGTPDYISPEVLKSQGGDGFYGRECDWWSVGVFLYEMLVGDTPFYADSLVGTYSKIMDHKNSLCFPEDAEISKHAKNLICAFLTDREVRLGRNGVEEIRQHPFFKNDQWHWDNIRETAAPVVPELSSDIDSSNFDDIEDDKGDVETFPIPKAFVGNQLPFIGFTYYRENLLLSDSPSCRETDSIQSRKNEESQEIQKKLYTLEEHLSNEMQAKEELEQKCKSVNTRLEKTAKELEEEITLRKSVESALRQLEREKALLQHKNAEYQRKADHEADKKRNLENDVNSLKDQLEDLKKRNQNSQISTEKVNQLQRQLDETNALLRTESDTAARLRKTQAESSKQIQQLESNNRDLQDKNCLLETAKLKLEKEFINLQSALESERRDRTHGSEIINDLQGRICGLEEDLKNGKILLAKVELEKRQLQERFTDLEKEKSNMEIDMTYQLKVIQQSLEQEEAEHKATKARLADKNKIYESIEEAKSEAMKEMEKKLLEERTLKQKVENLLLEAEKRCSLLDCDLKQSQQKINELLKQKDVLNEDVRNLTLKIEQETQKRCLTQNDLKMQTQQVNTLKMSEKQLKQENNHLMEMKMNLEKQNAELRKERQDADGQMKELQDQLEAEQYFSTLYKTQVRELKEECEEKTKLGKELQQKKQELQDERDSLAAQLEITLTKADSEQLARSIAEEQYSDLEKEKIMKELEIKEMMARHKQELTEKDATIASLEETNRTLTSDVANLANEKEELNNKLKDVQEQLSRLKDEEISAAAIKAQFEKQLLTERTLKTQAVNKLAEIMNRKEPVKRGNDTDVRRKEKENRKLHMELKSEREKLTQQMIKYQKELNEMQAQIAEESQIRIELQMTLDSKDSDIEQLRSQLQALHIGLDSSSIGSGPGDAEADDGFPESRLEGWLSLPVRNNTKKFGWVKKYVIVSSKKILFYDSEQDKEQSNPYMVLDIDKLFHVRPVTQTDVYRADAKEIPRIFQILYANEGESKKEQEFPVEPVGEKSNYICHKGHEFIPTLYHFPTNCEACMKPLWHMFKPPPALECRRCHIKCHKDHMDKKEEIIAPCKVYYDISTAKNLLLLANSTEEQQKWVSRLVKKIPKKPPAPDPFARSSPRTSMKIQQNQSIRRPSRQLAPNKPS

CDK2 [17] = biological target: CDK2 (UniProt P24941); assay: Enzyme Assay
CDK2 [18] = biological target: CDK2 (UniProt P24941); assay: Enzyme Assay; remark: listed apart in the source
CDK2 [19] = biological target: CDK2 (UniProt P24941); assay: Enzyme Assay; remark: listed apart in the source
EGFR [20] = biological target: EGFR (UniProt P00533); remark: listed apart in the source
EGFR (mouse) = EGFR (mouse) (UniProt P00533); settings: nih3t3/c7
EGFR (human) [21] = biological target: EGFR (human) (UniProt P00533); settings: A431
MAPK14 (human) = MAPK14 (human) (UniProt Q16539); assay: In vitro Inhibition of LPS-Induced TNF-alpha Release in THP-1 Cells; settings: thp.1 monocytic
Chain of MAPK14 (human) (Q16539 whole entry, looked up): as the sequence (Q16539 whole entry, looked up) above

MAPK14 [22] = biological target: MAPK14 (UniProt Q16539); assay: p38 Inhibition
CDK2 [23] = biological target: CDK2 (UniProt P24941); assay: Enzyme Assay; settings: concentration not given here
EGFR [24] = biological target: EGFR (UniProt P00533); remark: listed apart in the source
EGFR (human) [25] = biological target: EGFR (human) (UniProt P00533); settings: mkn45, concentration not given here
EGFR [26] = biological target: EGFR (UniProt P00533); remark: listed apart in the source

Chain of MAPK14 (Q16539 whole entry, looked up): as above
Chain of EGFR (P00533 whole entry, looked up): as the sequence (P00533 whole entry, looked up) above

SMILES: O=CN/C=C/c1cc(O)ccc1O
- IC50 (EGFR [1]): 5 µM

SMILES: O=C(CNS(=O)(=O)c1ccc(CNC(=O)c2ccc(Cl)cc2)s1)NCCNc1ccc(C(F)(F)F)cn1
- IC50 (MAPK14 [2]): > 30 µM

SMILES: CCN1CCN(CCCOc2cc3ncc(C#N)c(Nc4ccc(Sc5nccn5C)c(Cl)c4)c3cc2OC)CC1
- IC50 (MAP2K1;MAPK14 (human) [3]): 0.045 µM
- T/C (MAP2K1;MAPK14 (mice)): 44%
- IC50 (MAP2K1;MAPK14 (human) [4]): 0.007 µM

SMILES: CO[C@@H](C#CC(=O)Nc1ccc2ncc(C#N)c(Nc3cccc(Br)c3)c2c1)CN1CCCC1
- IC50 (EGFR (human) [5]): 1.2 µM
- IC50 (EGFR [6]): 0.15 µM

SMILES: Cc1cc(C(=O)N2CCOCC2)[nH]c1/C=C1/C(=O)Nc2ncnc(Nc3cccc4c3CCC4)c21
- IC50 (EGFR [7]): 0.377 µM

SMILES: Brc1cccc(Nc2ncnc3cc4c(ccn4CCCN4CCOCC4)cc23)c1
- IC50 (EGFR (human) [8]): 0.077 µM

SMILES: Cc1cccc(Nc2cc(Nc3cccc(N(C)C)c3OCCO)ncn2)c1
- IC50 (EGFR [9]): 0.001 µM

SMILES: COCC1COc2cc3ncnc(Nc4cccc(Br)c4)c3cc2O1 (stereo unspecified)
- GI50 (EGFR (human) [10]): 0.6 µM and 0.24 µM

SMILES: Nc1cc(OCC2CCCCC2)nc(N)n1
- GI50 (CDK2;CDK1): > 100 µM

SMILES: COc1cc2c(Nc3ccc(Sc4nccn4C)c(Cl)c3)c(C#N)cnc2cc1OCCCN1CCOCC1
- IC50 (MAP2K1;MAPK14 (human) [11]): 0.05 µM
- IC50 (MAP2K1;MAPK14 (human) [3]): 0.04 µM
- IC50 (MAP2K1;MAPK14 (human) [4]): 0.029 µM

SMILES: CCC(=O)CN(C)C/C=C/C(=O)Nc1cc2c(N[C@H](C)c3ccccc3)ncnc2cc1OC
- IC50 (EGFR (human) [12]): 0.009 µM

SMILES: N#C/C(=C\c1ccc(O)c(O)c1)C(N)=O
- IC50 (EGFR [1]): > 1000 µM
- Ki (EGFR (human) [13]): 3.5 µM

SMILES: Cn1ccc2cc3c(Nc4cccc(Br)c4)ncnc3cc21
- IC50 (EGFR [9]): 0.0005 µM

SMILES: CN(C)S(=O)(=O)c1ccc2c(c1)/C(=C/C1=CC3=C(CCCC3)C1)C(=O)N2
- IC50 (EGFR (murine)): > 100 µM

SMILES: COCCNS(=O)(=O)c1ccc(Nc2nccc(-c3cnc4cccnn34)n2)cc1
- IC50 (EGFR [14]): > 10 µM
- IC50 (CDK2 (human)): 0.39 µM
- IC50 (MAPK14 [15]): > 10 µM

SMILES: C=CC(=O)Nc1ccc2ncnc(Nc3ccc(OCc4ccccc4)cc3)c2c1
- activity (EGFR (human) [16]): 0%

SMILES: N#Cc1cnc2ccc(NC(=O)C#CCN3CCSCC3)cc2c1Nc1cccc(Br)c1
- IC50 (EGFR (human) [5]): 0.1 µM

SMILES: CC(N)[C@H]1CC[C@H](C(=O)Nc2ccnc3[nH]ccc23)CC1 (stereo partly specified)
- IC50 (ROCK2): 0.048 µM

SMILES: O=C1c2ccccc2-[n+]2ccc3c([nH]c4ccccc43)c21
- IC50 (CDK2 [17]): > 50 µM
- IC50 (CDK2 [18]): > 50 µM
- IC50 (CDK2 [19]): > 250 µM

SMILES: Brc1cccc(Nc2ncnc3cc4c(cc23)OCCO4)c1
- IC50 (EGFR [20]): 6 pM

SMILES: Cc1cnc2cc3nc(-c4ccccc4)[nH]c3c(C)c2n1
- IC50 (EGFR (mouse)): > 100 µM

SMILES: Cc1nnc(-c2ccc3ncnc(Nc4ccc(OCc5cc(F)cc(F)c5)cc4)c3c2)o1
- IC50 (EGFR (human) [21]): 0.009 µM

SMILES: O=C(Nc1ccc2[nH]cc(CCc3ccncc3)c2c1)c1cc(F)cc(N2CCOCC2)c1
- IC50 (MAPK14 (human)): 0.53 µM

SMILES: O=C(CNS(=O)(=O)c1ccc(CNC(=O)c2ccc(Cl)cc2)s1)NCCNc1ncc(C(F)(F)F)cc1Cl
- IC50 (MAPK14 [2]): > 30 µM
- IC50 (MAPK14 [22]): > 30 µM

SMILES: Cn1cnc2c(OCC3CCCCC3)nc(N)nc21
- GI50 (CDK2;CDK1): > 100 µM

SMILES: C[S+]([O-])c1ccc(-c2nc(-c3ccc(F)cc3)c(-c3ccncc3)[nH]2)cc1 (stereo unspecified)
- activity (CDK2 [23]): 112%
- activity (CDK2 [19]; concentration not given here): 91%

SMILES: Cc1cc(C)c(N2CCN(C)CC2)c(C)c1-c1nc(-c2ccncc2)c(-c2ccc(Cl)cc2)[nH]1
- IC50 (EGFR [24]): 0.05 µM

SMILES: Nc1c2ccccc2nc2c1ccc1ncccc12
- cell viability (EGFR (human) [25]): > 90%

SMILES: COc1cccc(-c2cn(-c3ccc(CC(=O)NCCO)cc3)c3ncncc23)c1
- IC50 (EGFR [26]): 0.8 µM
